Laboratory results taken from ChEMBL document CHEMBL4610038, “The synthesis of trifluoromethylated N-nitroaryl-2-amino-1,3-dichloropropane derivatives and their evaluation as potential anti-cancer agents” (Bioorg Med Chem Lett, 2020).

What was measured:
MCF7 [1] = assay: Cytotoxicity against human MCF7 cells assessed as cell viability at 100 uM relative to control; assay type: functional; details: read-out: Activity
MDA-MB-231 [2] = assay: Cytotoxicity against human MDA-MB-231 cells assessed as cell viability at 100 uM relative to control; assay type: functional; details: read-out: Activity
MDA-MB-468 [3] = assay: Cytotoxicity against human MDA-MB-468 cells assessed as cell viability at 100 uM relative to control; assay type: functional; details: read-out: Activity
SK-BR-3 [4] = assay: Cytotoxicity against human SKBR3 cells assessed as cell viability at 100 uM relative to control; assay type: functional; details: read-out: Activity
T47D [5] = assay: Cytotoxicity against human T47D cells assessed as cell viability at 100 uM relative to control; assay type: functional; details: read-out: Activity
Caco-2 [6] = assay: Cytotoxicity against human Caco2 cells assessed as cell viability at 100 uM relative to control; assay type: functional; details: read-out: Activity
HCT-116 [7] = assay: Cytotoxicity against human HCT116 cells assessed as cell viability at 100 uM relative to control; assay type: functional; details: read-out: Activity
HT-29 [8] = assay: Cytotoxicity against human HT-29 cells assessed as cell viability at 100 uM relative to control; assay type: functional; details: read-out: Activity
SW48 [9] = assay: Cytotoxicity against human SW48 cells assessed as cell viability at 100 uM relative to control; assay type: functional; details: read-out: Activity
A549 [10] = assay: Cytotoxicity against human A549 cells assessed as cell viability at 100 uM relative to control; assay type: functional; details: read-out: Activity
NCI-H1299 [11] = assay: Cytotoxicity against human H1299 cells assessed as cell viability at 100 uM relative to control; assay type: functional; details: read-out: Activity
CNE [12] = assay: Cytotoxicity against human CNE1 cells assessed as cell viability at 100 uM relative to control; assay type: functional; details: read-out: Activity
[13] = Cytotoxicity against human HK1 cells assessed as cell viability at 100 uM relative to control; assay type: functional; details: HK-1, read-out: Activity
SUNE1 [14] = assay: Cytotoxicity against human SUNE1 cells assessed as cell viability at 100 uM relative to control; assay type: functional; details: read-out: Activity
SH-SY5Y [15] = assay: Cytotoxicity against human SH-SY5Y cells assessed as cell viability at 100 uM relative to control; assay type: functional; details: read-out: Activity
ASPC1 [16] = assay: Cytotoxicity against human AsPC1 cells assessed as cell viability at 100 uM relative to control; assay type: functional; details: read-out: Activity
BXPC-3 [17] = assay: Cytotoxicity against human BxPC3 cells assessed as cell viability at 100 uM relative to control; assay type: functional; details: read-out: Activity
SW1990 [18] = assay: Cytotoxicity against human SW1990 cells assessed as cell viability at 100 uM relative to control; assay type: functional; details: read-out: Activity
[19] = Cytotoxicity against human MCF10A cells assessed as cell viability at 100 uM relative to control; assay type: cell-based, MCF-10A; details: read-out: Activity
[20] = Cytotoxicity against human MRC5 cells assessed as cell viability at 100 uM relative to control; assay type: cell-based; details: read-out: Activity
MCF7 [21] = assay: Cytotoxicity against human MCF7 cells assessed as reduction in cell viability; assay type: functional, cell-based
MDA-MB-231 [22] = assay: Cytotoxicity against human MDA-MB-231 cells assessed as reduction in cell viability; assay type: functional, cell-based
MDA-MB-468 [23] = assay: Cytotoxicity against human MDA-MB-468 cells assessed as reduction in cell viability; assay type: functional, cell-based
SK-BR-3 [24] = assay: Cytotoxicity against human SKBR3 cells assessed as reduction in cell viability; assay type: functional, cell-based
T47D [25] = assay: Cytotoxicity against human T47D cells assessed as reduction in cell viability; assay type: functional, cell-based
Caco-2 [26] = assay: Cytotoxicity against human Caco2 cells assessed as reduction in cell viability; assay type: functional, cell-based
HCT-116 [27] = assay: Cytotoxicity against human HCT116 cells assessed as reduction in cell viability; assay type: functional, cell-based
HT-29 [28] = assay: Cytotoxicity against human HT-29 cells assessed as reduction in cell viability; assay type: functional, cell-based
SW48 [29] = assay: Cytotoxicity against human SW48 cells assessed as reduction in cell viability; assay type: functional, cell-based
A549 [30] = assay: Cytotoxicity against human A549 cells assessed as reduction in cell viability; assay type: functional, cell-based
NCI-H1299 [31] = assay: Cytotoxicity against human H1299 cells assessed as reduction in cell viability; assay type: functional, cell-based
CNE [32] = assay: Cytotoxicity against human CNE1 cells assessed as reduction in cell viability; assay type: functional, cell-based
[33] = Cytotoxicity against human HK1 cells assessed as reduction in cell viability; assay type: functional, cell-based; details: HK-1
SUNE1 [34] = assay: Cytotoxicity against human SUNE1 cells assessed as reduction in cell viability; assay type: functional, cell-based
SH-SY5Y [35] = assay: Cytotoxicity against human SH-SY5Y cells assessed as reduction in cell viability; assay type: functional, cell-based
ASPC1 [36] = assay: Cytotoxicity against human AsPC1 cells assessed as reduction in cell viability; assay type: functional, cell-based
BXPC-3 [37] = assay: Cytotoxicity against human BxPC3 cells assessed as reduction in cell viability; assay type: functional, cell-based
SW1990 [38] = assay: Cytotoxicity against human SW1990 cells assessed as reduction in cell viability; assay type: functional, cell-based
MCF-10A = assay: Cytotoxicity against human MCF10A cells assessed as reduction in cell viability; assay type: cell-based
MRC5 = assay: Cytotoxicity against human MRC5 cells assessed as reduction in cell viability; assay type: cell-based

Structure (SMILES) | viability at 100 µM (MCF7 [1]) | viability at 100 µM (MDA-MB-231 [2]) | viability at 100 µM (MDA-MB-468 [3]) | viability at 100 µM (SK-BR-3 [4]) | viability at 100 µM (T47D [5]) | viability at 100 µM (Caco-2 [6]) | viability at 100 µM (HCT-116 [7]) | viability at 100 µM (HT-29 [8]) | viability at 100 µM (SW48 [9]) | viability at 100 µM (A549 [10]) | viability at 100 µM (NCI-H1299 [11]) | viability at 100 µM (CNE [12]) | viability at 100 µM [13] | viability at 100 µM (SUNE1 [14]) | viability at 100 µM (SH-SY5Y [15]) | viability at 100 µM (ASPC1 [16]) | viability at 100 µM (BXPC-3 [17]) | viability at 100 µM (SW1990 [18]) | viability at 100 µM [19] | viability at 100 µM [20] | further results
O=[N+]([O-])c1ccc(NC(CCl)CCl)cc1 | 38.8% | 72.4% | 45.1% | 73.1% | 65.2% | 91.6% | 79.4% | 60.9% | 58.8% | 73.5% | 67.4% | 88.1% | 76.9% | 110% | 65.8% | 67.7% | 82.9% | 55.1% | 82.7% | 44.9% | IC50 (MCF7 [21]): 70.2 µM; IC50 (MDA-MB-231 [22]): > 100 µM; IC50 (MDA-MB-468 [23]): > 100 µM; IC50 (SK-BR-3 [24]): > 100 µM; IC50 (T47D [25]): > 100 µM; IC50 (Caco-2 [26]): > 100 µM; IC50 (HCT-116 [27]): > 100 µM; IC50 (HT-29 [28]): > 100 µM; IC50 (SW48 [29]): > 100 µM; IC50 (A549 [30]): > 100 µM; IC50 (NCI-H1299 [31]): > 100 µM; IC50 (CNE [32]): > 100 µM; IC50 [33]: > 100 µM; IC50 (SUNE1 [34]): > 100 µM; IC50 (SH-SY5Y [35]): > 100 µM; IC50 (ASPC1 [36]): > 100 µM; IC50 (BXPC-3 [37]): > 100 µM; IC50 (SW1990 [38]): > 100 µM; IC50 (MCF-10A): > 100 µM; IC50 (MRC5): 58.3 µM
O=[N+]([O-])c1ccc(NC(CO)CO)cc1 | 65.6% | 87.7% | 102% | 93.1% | 73.6% | 101% | 89.7% | 96.3% | 95.3% | 96.7% | 92.7% | 104% | 99.6% | 109% | 99.9% | 96.4% | 100% | 87.5% | 103% | 32.2% | IC50 (MCF7 [21]): > 100 µM; IC50 (MDA-MB-231 [22]): > 100 µM; IC50 (MDA-MB-468 [23]): > 100 µM; IC50 (SK-BR-3 [24]): > 100 µM; IC50 (T47D [25]): > 100 µM; IC50 (Caco-2 [26]): > 100 µM; IC50 (HCT-116 [27]): > 100 µM; IC50 (HT-29 [28]): > 100 µM; IC50 (SW48 [29]): > 100 µM; IC50 (A549 [30]): > 100 µM; IC50 (NCI-H1299 [31]): > 100 µM; IC50 (CNE [32]): > 100 µM; IC50 [33]: > 100 µM; IC50 (SUNE1 [34]): > 100 µM; IC50 (SH-SY5Y [35]): > 100 µM; IC50 (ASPC1 [36]): > 100 µM; IC50 (BXPC-3 [37]): > 100 µM; IC50 (SW1990 [38]): > 100 µM; IC50 (MCF-10A): > 100 µM; IC50 (MRC5): 60.2 µM
O=[N+]([O-])c1ccccc1NC(CO)CO | 66.6% | 91.8% | 104% | 101% | 76.2% | 95.1% | 76.9% | 86.1% | 102% | 74.9% | 96.7% | 102% | 90.1% | 99.3% | 89.7% | 101% | 102% | 91.9% | 100% | 101% | IC50 (MCF7 [21]): > 100 µM; IC50 (MDA-MB-231 [22]): > 100 µM; IC50 (MDA-MB-468 [23]): > 100 µM; IC50 (SK-BR-3 [24]): > 100 µM; IC50 (T47D [25]): > 100 µM; IC50 (Caco-2 [26]): > 100 µM; IC50 (HCT-116 [27]): > 100 µM; IC50 (HT-29 [28]): > 100 µM; IC50 (SW48 [29]): > 100 µM; IC50 (A549 [30]): > 100 µM; IC50 (NCI-H1299 [31]): > 100 µM; IC50 (CNE [32]): > 100 µM; IC50 [33]: > 100 µM; IC50 (SUNE1 [34]): > 100 µM; IC50 (SH-SY5Y [35]): > 100 µM; IC50 (ASPC1 [36]): > 100 µM; IC50 (BXPC-3 [37]): > 100 µM; IC50 (SW1990 [38]): > 100 µM; IC50 (MCF-10A): > 100 µM; IC50 (MRC5): > 100 µM
O=[N+]([O-])c1ccccc1NC(CCl)CCl | 37.7% | 85.1% | 63.6% | 79.9% | 69.8% | 104% | 64.9% | 65.3% | 62.6% | 82.9% | 109% | 72.5% | 101% | 80.5% | 60.8% | 75.2% | 105% | 64.4% | 88.7% | 54.8% | IC50 (MCF7 [21]): 50.9 µM; IC50 (MDA-MB-231 [22]): > 100 µM; IC50 (MDA-MB-468 [23]): > 100 µM; IC50 (SK-BR-3 [24]): > 100 µM; IC50 (T47D [25]): > 100 µM; IC50 (Caco-2 [26]): > 100 µM; IC50 (HCT-116 [27]): > 100 µM; IC50 (HT-29 [28]): > 100 µM; IC50 (SW48 [29]): > 100 µM; IC50 (A549 [30]): > 100 µM; IC50 (NCI-H1299 [31]): > 100 µM; IC50 (CNE [32]): > 100 µM; IC50 [33]: > 100 µM; IC50 (SUNE1 [34]): > 100 µM; IC50 (SH-SY5Y [35]): > 100 µM; IC50 (ASPC1 [36]): > 100 µM; IC50 (BXPC-3 [37]): > 100 µM; IC50 (SW1990 [38]): > 100 µM; IC50 (MCF-10A): > 100 µM; IC50 (MRC5): > 100 µM
